{"source": "patent US20140221499A1", "about": "“NOVEL RODENT CONTROL AGENTS AND USES THEREOF” (priority 2011, published 2014)", "key": {"mTAAR4": {"target": "T1, mTAAR4 (Mus musculus, UniProt Q5QD15)", "T1 construct": "Full Taar coding regions were cloned into pcDNA3.1; expressed in transfected cells; host or cells: HEK293", "T1 sequence (Q5QD15 with tags, fused parts or gaps)": "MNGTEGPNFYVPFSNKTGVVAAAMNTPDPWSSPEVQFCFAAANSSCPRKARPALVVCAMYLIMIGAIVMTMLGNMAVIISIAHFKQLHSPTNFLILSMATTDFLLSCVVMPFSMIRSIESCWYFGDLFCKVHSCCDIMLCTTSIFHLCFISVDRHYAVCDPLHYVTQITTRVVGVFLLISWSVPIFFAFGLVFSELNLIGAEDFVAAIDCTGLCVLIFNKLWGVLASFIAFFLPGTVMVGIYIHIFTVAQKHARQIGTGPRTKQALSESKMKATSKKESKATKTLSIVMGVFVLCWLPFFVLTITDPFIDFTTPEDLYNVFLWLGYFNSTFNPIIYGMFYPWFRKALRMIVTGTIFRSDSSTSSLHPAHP", "assay": "CRE-SEAP reporter gene assay in HEK293 cells transfected with mTAAR4 (fusion with N-terminal sequence of bovine rhodopsin, 'Rho tag')", "type": "cell-based", "conditions": "FIG. 11B, mTAAR4 required a 'Rho tag' (N-terminal bovine rhodopsin sequence, first 20 amino acids), EC50 ± s.e.m., 4-parameter Hill equation", "quoted_text": "(A) HEK293 cells were transfected with TAAR4 and reporter plasmids, incubated with urine extracts of species indicated, and assayed for reporter activity (triplicates±SD). […] TAAR4 was expressed as a fusion protein with an N-terminal sequence of bovine rhodopsin, which provided enhanced signal (24). […] Urine (diluted 300- or 100-fold) or urine extracts (diluted 30-, 10-, or 3-fold) of species indicated were tested (triplicates±s.d.).\nFIG. 11 illustrates the dose-dependent responses of TAARs to amines. […] EC50 values (±s.e.m, bottom right) were calculated using SigmaPlot (Systat Software) and a 4-parameter Hill equation.\nFull Taar coding regions were cloned into pcDNA3.1-(Invitrogen) with or without a 5′ DNA extension of 69 bp encoding the first 20 amino acids of bovine rhodopsin followed by a cloning linker ([sequence]). […] Fluorescence was measured on an EnVision plate reader (Perkin Elmer) and SEAP activity graphed as relative fluorescence of a phosphatase substrate.\nHEK293 cells were co-transfected with TAAR expression plasmids and a cAMPdependent reporter gene encoding secreted alkaline phosphatase (CRE-SEAP). Transfected cells were incubated with urine extracts from different mammalian species, and phosphatase activity was quantified with a fluorescent substrate as a reporter for TAAR activation."}, "[1]": {"tested_on": "mouse olfactory sensory neurons", "assay": "Confocal calcium imaging of olfactory sensory neurons in tissue slices", "type": "cell-based", "procedure": "The mammalian olfactory system encodes odor identity using combinations of olfactory receptors (11). […] Here, we used a confocal imaging strategy to record cytosolic calcium transients of single sensory neurons in real time. Viability of analyzed neurons was determined after odor exposures by KCl-induced depolarization.\nConfocal calcium imaging of olfactory sensory neurons in tissue slices. Recordings were performed as described (Spehr M, et al. (2006) Essential role of the main olfactory system in social recognition of major histocompatibility complex peptide ligands. J Neurosci 26(7):1961-1970) with the following modifications. For calcium sensitive dye loading, slices of olfactory epithelium were incubated (30 min, 4° C.) in HEPES solution (in mM: 145 NaCl, 5 KCl, 1 CaCl2, 1 MgCl2, 10 HEPES; pH=7.3) containing Fluo-4/AM (2 μM; Molecular Probes). Slices were transferred to a recording chamber (Slice Mini Chamber, Luigs & Neumann, Ratingen, Germany) and visualized using a Leica DM6000CFS confocal fixed stage upright microscope (Leica Microsystems, Mannheim, Germany) equipped with an apochromatic water immersion objective (HC X APO L20x/1.0 W) and infrared-optimized differential interference contrast (DIC) optics. Slices were anchored via stainless steel wires with 0.1 mm lycra threads and continuously superfused with HEPES-buffered solution. Changes in cytosolic calcium were monitored over time at 1.0 Hz frame rate. Stimulus application as well as solution exchange during inter-stimulus intervals was achieved by a custom-made, pressure-driven focal application device consisting of a software-controlled valve bank connected to a 7-in-1 ‘perfusion pencil’. Rhodamine application controlled for uniform flow and even stimulus application throughout the epithelial sensory surface. Offline analysis of time-lapse experiments was performed using LAS-AF software (Leica). All cells in a given field of view were marked as individual regions of interest (ROIs), and the relative fluorescence intensity for each ROI was calculated and processed as a function of time."}}, "data": [{"smiles": "NCCc1ccccc1", "note": "[2-phenylethylamine]", "values": [{"measurement": "EC50", "setting": "mTAAR4", "value": "7.5 ± 3.7", "unit": "µM"}, {"measurement": "activation of olfactory sensory neurons", "setting": "[1]; dorsal and ventral olfactory epithelium", "value": "activated a subset of KCl-responsive olfactory sensory neurons"}, {"measurement": "2-phenylethylamine-responsive neurons activated by all four test stimuli", "setting": "[1]; dorsal olfactory epithelium", "value": "30/52"}, {"measurement": "2-phenylethylamine-responsive neurons distinguishing lion and giraffe urine and not responding to benzylamine", "setting": "[1]; of 2-phenylethylamine-responsive neurons (13/52)", "value": 25, "unit": "%"}, {"measurement": "2-phenylethylamine-responsive neurons distinguishing lion and giraffe urine and not responding to benzylamine", "setting": "[1]; of all dorsal KCl-responsive neurons (13/1268)", "value": "~1", "unit": "%"}]}]}
